# Measurements from PubChem BioAssay AID304 (DTP/NCI, 2004).
# “And” between values parts separate entries of the source, which are not always exact repeats. Identical values can stand only once. Toxic doses and inconclusive results are not listed.
# Test system: Lymphosarcoma Mecca ip in C3AKF1 mice, survival T/C%
# Experiment: NCI In Vivo Anticancer Drug Screen. Data for tumor model Lymphosarcoma Mecca (intraperitoneal) in C3AKF1 (CHKRF1) mice
# Settings: endpoint: survival time, mean or median, higher = longer survival
# Protocol: The antitumor activity of compounds was measured in mice bearing transplantable tumors. Survival or tumor size were measured and the results are expressed as the measurement made in the treated group (T) divided by the measurement made in the vehicle treated control group (C). The tumor model used in this assay is Lymphosarcoma Mecca (intraperitoneal) in C3AKF1 (CHKRF1) mice
# [1] = dose: 25.0 mg/kg/injection, schedule: Q01DX010 (ip), vehicle: saline
# [2] = dose: 50.0 mg/kg/injection, schedule: Q01DX010 (ip), vehicle: saline
# [3] = dose: 100.0 mg/kg/injection, schedule: Q01DX010 (ip), vehicle: saline
# [4] = dose: 200.0 mg/kg/injection, schedule: Q01DX010 (ip), vehicle: saline
# [5] = dose: 400.0 mg/kg/injection, schedule: Q01DX010 (ip), vehicle: saline
# [6] = dose: 4.0 mg/kg/injection, schedule: Q01DX010 (ip), vehicle: saline
# [7] = dose: 8.0 mg/kg/injection, schedule: Q01DX010 (ip), vehicle: saline
# [8] = dose: 18.8 mg/kg/injection, schedule: Q01DX010 (ip), vehicle: saline
# [9] = dose: 37.5 mg/kg/injection, schedule: Q01DX010 (ip), vehicle: saline
# [10] = dose: 75.0 mg/kg/injection, schedule: Q01DX010 (ip), vehicle: saline
# [11] = dose: 0.5 mg/kg/injection, schedule: Q01DX010 (ip), vehicle: saline
# [12] = dose: 1.0 mg/kg/injection, schedule: Q01DX010 (ip), vehicle: saline
# [13] = dose: 2.0 mg/kg/injection, schedule: Q01DX010 (ip), vehicle: saline
# [14] = dose: 5.0 mg/kg/injection, schedule: Q01DX010 (ip), vehicle: saline
# [15] = dose: 10.0 mg/kg/injection, schedule: Q01DX010 (ip), vehicle: saline
# [16] = dose: 6.0 mg/kg/injection, schedule: Q01DX010 (ip), vehicle: saline
# [17] = dose: 12.0 mg/kg/injection, schedule: Q01DX010 (ip), vehicle: saline
# [18] = dose: 20.0 mg/kg/injection, schedule: Q01DX010 (ip), vehicle: saline
# [19] = dose: 40.0 mg/kg/injection, schedule: Q01DX010 (ip), vehicle: saline
# [20] = dose: 80.0 mg/kg/injection, schedule: Q01DX010 (ip), vehicle: saline
# [21] = dose: 15.0 mg/kg/injection, schedule: Q01DX010 (ip), vehicle: saline
# [22] = dose: 30.0 mg/kg/injection, schedule: Q01DX010 (ip), vehicle: saline
# [23] = dose: 3.13 mg/kg/injection, schedule: Q01DX010 (ip), vehicle: saline
# [24] = dose: 6.25 mg/kg/injection, schedule: Q01DX010 (ip), vehicle: saline
# [25] = dose: 12.5 mg/kg/injection, schedule: Q01DX010 (ip), vehicle: saline
compound,measurement,setting,value
COC1C(OC(=O)/C=C/C=C/C=C/C=C/C(=O)O)CCC2(CO2)C1C1(C)OC1CC=C(C)C (configuration not stated),T/C,[1],100 % of control
same,T/C,[2],100 % of control and 110 % of control
same,T/C,[3],100 % of control and 104 % of control
same,T/C,[4],90 % of control
COC(=O)[C@@H]1c2cc3c(c(O)c2[C@@H](OC2OC(C)C(OC)C(C)(OC)C2OC)C[C@]1(C)O)C(=O)c1c(O)cc2c(c1C3=O)O[C@H]1O[C@]2(C)[C@H](O)[C@@H](N(C)C)[C@@H]1O (some centres not stated),T/C,"dose: 125.0 micrograms/kg/injection, schedule: Q01DX010 (ip), vehicle: saline",95 % of control and 100 % of control
same,T/C,"dose: 250.0 micrograms/kg/injection, schedule: Q01DX010 (ip), vehicle: saline",110 % of control
same,T/C,"dose: 500.0 micrograms/kg/injection, schedule: Q01DX010 (ip), vehicle: saline",100 % of control and 105 % of control
OC(CBr)C(O)C(O)C(O)CBr (configuration not stated),T/C,[1],100 % of control
same,T/C,[2],100 % of control
same,T/C,[3],100 % of control and 110 % of control
same,T/C,[4],89 % of control
same,T/C,[5],115 % of control
CN1CC[C@]23c4c5ccc(O)c4O[C@H]2C(=O)CC[C@H]3[C@H]1C5,T/C,[6],88 % of control and 100 % of control
same,T/C,[7],100 % of control and 111 % of control
same,T/C,"dose: 16.0 mg/kg/injection, schedule: Q01DX010 (ip), vehicle: saline",105 % of control and 111 % of control
same,T/C,"dose: 32.0 mg/kg/injection, schedule: Q01DX010 (ip), vehicle: saline",100 % of control and 116 % of control
C[C@H](N)C(=O)N[C@@H]1[C@H]2C(=C(O)C[C@@H](O)[C@@H]2O)C(=O)O[C@@H]1C,T/C,"dose: 150.0 mg/kg/injection, schedule: Q01DX010 (ip), vehicle: saline",155 % of control
same,T/C,"dose: 300.0 mg/kg/injection, schedule: Q01DX010 (ip), vehicle: saline",92 % of control
same,T/C,"dose: 600.0 mg/kg/injection, schedule: Q01DX010 (ip), vehicle: saline",100 % of control and 120 % of control
same,T/C,"dose: 1200.0 mg/kg/injection, schedule: Q01DX010 (ip), vehicle: saline",155 % of control
CS(=O)(=O)OCCCl,T/C,[8],100 % of control
same,T/C,[9],113 % of control
same,T/C,[10],100 % of control
COCCCNP(=S)(N1CC1)N1CC1,T/C,[11],100 % of control
same,T/C,[12],100 % of control
same,T/C,[13],100 % of control
same,T/C,[6],105 % of control
CCOC(=O)NP(=O)(N1CC1)N1CC1,T/C,"dose: 2.5 mg/kg/injection, schedule: Q01DX010 (ip), vehicle: saline",111 % of control and 116 % of control
same,T/C,[14],116 % of control and 122 % of control
same,T/C,[15],122 % of control
Nc1nc(F)nc2c1ncn2C1OC(CO)C(O)C1O (configuration not stated),T/C,[11],100 % of control
same,T/C,[12],90 % of control and 105 % of control
same,T/C,[13],90 % of control and 100 % of control
same,T/C,[6],100 % of control
same,T/C,[7],100 % of control
CO[C@@H]1[C@@H](OC2OC(C)C(OC3CC(C)(O)C(OC(=O)CC(C)C)C(C)O3)C(N(C)C)C2O)[C@@H](CC=O)C[C@@H](C)C(=O)/C=C/C2O[C@H]2C[C@@H](C)OC(=O)C[C@H]1OC(C)=O (some centres not stated),T/C,"dose: 4.7 mg/kg/injection, schedule: Q01DX010 (ip), vehicle: saline",90 % of control
same,T/C,"dose: 9.4 mg/kg/injection, schedule: Q01DX010 (ip), vehicle: saline",100 % of control
same,T/C,[8],90 % of control
same,T/C,[9],90 % of control and 95 % of control
same,T/C,[10],86 % of control
N#[N+]c1cnc([O-])[nH]c1=O,T/C,[14],157 % of control
Nc1ncnc2[nH]ncc12,T/C,"dose: 1.5 mg/kg/injection, schedule: Q01DX010 (ip), vehicle: saline",105 % of control
same,T/C,"dose: 3.0 mg/kg/injection, schedule: Q01DX010 (ip), vehicle: saline",111 % of control and 115 % of control
same,T/C,[16],95 % of control
same,T/C,[17],95 % of control
Cn1c(N)nc2nc[nH]c2c1=S,T/C,[15],100 % of control and 105 % of control
same,T/C,[18],100 % of control and 105 % of control
same,T/C,[19],110 % of control
same,T/C,[20],100 % of control
CN(C)c1ccc(/C=C/c2ccnc3ccccc23)cc1,T/C,[14],100 % of control and 111 % of control
same,T/C,[15],94 % of control
same,T/C,[18],94 % of control and 100 % of control
same,T/C,[19],94 % of control
N#CCSc1ncnc2nc[nH]c12,T/C,[21],95 % of control and 119 % of control
same,T/C,[22],90 % of control and 95 % of control
same,T/C,"dose: 60.0 mg/kg/injection, schedule: Q01DX010 (ip), vehicle: saline",90 % of control and 95 % of control
same,T/C,"dose: 120.0 mg/kg/injection, schedule: Q01DX010 (ip), vehicle: saline",95 % of control
N=[N+]=CC(=O)OCC(N)C(=O)O (configuration not stated),T/C,[23],120 % of control and 124 % of control
same,T/C,[24],100 % of control
same,T/C,[25],116 % of control
same,T/C,[1],105 % of control
CN(C)[C@@H]1C(=O)C(C(N)=O)=C(O)[C@@]2(O)C(=O)C3=C(O)c4c(O)cccc4C[C@H]3C[C@@H]12,T/C,"dose: 3.75 mg/kg/injection, schedule: Q01DX010 (ip), vehicle: saline",100 % of control
same,T/C,"dose: 7.5 mg/kg/injection, schedule: Q01DX010 (ip), vehicle: saline",100 % of control
same,T/C,[21],100 % of control
same,T/C,[22],90 % of control and 94 % of control
CSc1ncnc2nc[nH]c12,T/C,[1],109 % of control
same,T/C,[2],95 % of control and 118 % of control
same,T/C,[3],95 % of control and 113 % of control
same,T/C,[4],104 % of control
CS(=O)(=O)OCCCCOS(C)(=O)=O,T/C,[24],86 % of control and 100 % of control
same,T/C,[25],100 % of control
same,T/C,[1],90 % of control
same,T/C,[2],95 % of control
O=C(Nc1ccc(C2=NCCN2)cc1)c1ccc(C(=O)Nc2ccc(C3=NCCN3)cc2)c([N+](=O)[O-])c1,T/C,[16],116 % of control
same,T/C,[7],116 % of control
same,T/C,[17],116 % of control
O=c1[nH]c(=O)n(C2CC(O)C(CO)O2)cc1F (configuration not stated),T/C,[14],100 % of control
same,T/C,[15],109 % of control and 115 % of control
same,T/C,[18],113 % of control and 120 % of control
same,T/C,[20],159 % of control
CCN(CC)CCCC(C)Nc1c2ccc(Cl)cc2nc2ccc(OC)cc12 (configuration not stated),T/C,[25],100 % of control
same,T/C,[1],100 % of control and 111 % of control
same,T/C,[2],90 % of control and 105 % of control
same,T/C,[3],95 % of control and 111 % of control
O=NN(CCCl)C(=O)NCCCl,T/C,[24],275 % of control and 303 % of control
same,T/C,[25],151 % of control and 155 % of control
same,T/C,[1],92 % of control and 115 % of control
Nc1nc(=O)n(C2CC(O)C(CO)O2)cc1Br (configuration not stated),T/C,[2],100 % of control
same,T/C,[3],100 % of control and 105 % of control
same,T/C,[4],100 % of control and 111 % of control
same,T/C,[5],90 % of control and 94 % of control
same,T/C,"dose: 800.0 mg/kg/injection, schedule: Q01DX010 (ip), vehicle: saline",88 % of control
O=[n+]1c2c(n([O-])c3ccccc31)-c1cccc3cccc-2c13,T/C,[23],100 % of control
same,T/C,[25],88 % of control
same,T/C,[1],90 % of control
CCN(CC)CCNc1ccc(C)c2sc3ccccc3c(=O)c12,T/C,[1],116 % of control and 122 % of control
same,T/C,[2],105 % of control
same,T/C,[3],111 % of control
S=P(N1CC1)(N1CC1)N1CC1,T/C,[12],270 % of control
same,T/C,[13],90 % of control
same,T/C,[6],109 % of control
Cc1cc2nc3c(=O)[nH]c(=O)nc-3n(CC(O)C(O)C(O)C(O)CO)c2cc1C (configuration not stated),T/C,[1],95 % of control
same,T/C,[2],90 % of control and 95 % of control
same,T/C,[3],90 % of control and 100 % of control
same,T/C,[4],90 % of control and 100 % of control
CS(=O)(=O)OCC(O)C(O)C(O)C(O)COS(C)(=O)=O (configuration not stated),T/C,[1],111 % of control
same,T/C,[2],100 % of control and 111 % of control
same,T/C,[3],100 % of control and 116 % of control
same,T/C,[4],100 % of control and 122 % of control
same,T/C,[5],110 % of control
CC/C(=C(/CC)c1ccc(O)cc1)c1ccc(O)cc1,T/C,"dose: 12.5 mg/kg/injection, schedule: Q01DX010 (sc), vehicle: steriod suspending solution",96 % of control and 110 % of control
same,T/C,"dose: 25.0 mg/kg/injection, schedule: Q01DX010 (sc), vehicle: steriod suspending solution",120 % of control
same,T/C,"dose: 50.0 mg/kg/injection, schedule: Q01DX010 (sc), vehicle: steriod suspending solution",88 % of control and 105 % of control
same,T/C,"dose: 100.0 mg/kg/injection, schedule: Q01DX010 (sc), vehicle: steriod suspending solution",92 % of control and 100 % of control
NC(=O)N(CCCl)N=O,T/C,[11],300 % of control
same,T/C,[12],158 % of control and 230 % of control
same,T/C,[6],110 % of control
